The results in this text go back to patent EP0643966A1, “SENSITIVITY ENHANCER FOR ANTINEOPLASIC AGENT” (KYOWA HAKKO KOGYO CO., LTD., priority 1993, dated 1994).

The test system of experiment [1] is Adriamycin-Resistant Human Ovary Cancer Cells (A2780/ADM). As to the kind of experiment: Test on Vindesine Resistance Using Adriamycin-Resistant Human Ovary Cancer Cells (A2780/ADM).
Experimental: (§1) A2780/ADM cells were diluted with an RPMI 1640 medium (430-1800 EB, produced by GIBCO) containing 10% fetal bovine serum (200-6140AG, produced by GIBCO) and 1% glutamine (320-5030 PG, produced by GIBCO) to a concentration of 30000 cells/ml. One milliliter of the cell suspension was inoculated to each well of a 24-well microtiter plate and cultured under conditions of 37°C, 5% CO₂, and a humidity of 95% or higher for 1 day. A mixture of 0.1 ml of a Vindesine solution diluted serially with the above medium and 0.1 ml of the above medium was added to each well as a control group. […] The cells in each well were further cultured under the same conditions as above for additional 3 days, and the number of the cells was counted with a Coulter counter to obtain a 50% growth inhibitory concentration (IC₅₀) of the control groups and the test groups.
Experiment [2] has as its system Vincristine-Resistant Mouse Leukemia Cells (P388/VCR). As to the kind of experiment: Test on Vincristine Resistance Using Vincristine-Resistant Mouse Leukemia Cells (P388/VCR). The format is in vivo. As to conditions: for T/C: P388/VCR-implanted CDF₁ mice. As for the experimental part:
Vincristine-resistant P388 cells (P388/VCR) were suspended in physiological saline, and 5x10⁶ cells/0.2 ml were intraperitoneally implanted to grouped 6-week-old CDF₁ strain male mice, each group consisting of 5 mice. A prescribed amount of Vincristine alone or a mixture of Vincristine and a test compound (I) was intraperitoneally administered for consecutive 5 days from the next day of the implantation. The effect of overcoming the drug resistance was evaluated in terms of T/C, a percentage of the number of survival days of a test group to the number of survival days of a control group.
Vincristine (VCR) used was Vincristine Sulfate, produced by Shionogi & Co., Ltd., dissolved in physiological saline. Compound (I) was suspended in a 0.3% aqueous solution of carboxymethyl cellulose and administered in an amount of 0.1 ml per 10 g-b.w. […]

Experiment [3] deals with Adriamycin-Resistant Human Ovary Cancer Cells (A2780/ADM). As to conditions: 72 h.
Experimental: as §1
Setting [4] is: A2780, 72 h, read-out: IC₅₀ of Test Compound Alone, A2780/ADM cells, test compound alone, 3 days culture, cell count.

Each structure is given as a SMILES string. pIC50: −log10 of the molar value. Structures can show the parent of a compound that is named as a salt. Where two headings read alike, the source gives them in different places.

On to `CCCCCCOC(=O)C1(O)CC2OC1(C)n1c3ccccc3c3c4c(c5c6ccccc6n2c5c31)C(=O)NC4` (stereo not drawn) [Compound I-14], for which the pIC50 in experiment [1] (setting [4]) was 5.32.
As to `CCOC(=O)C1(O)CC2OC1(C)n1c3ccccc3c3c4c(c5c6ccccc6n2c5c31)C(=O)NC4` (stereo not drawn) [Compound I-11], the pIC50 is 6.80 in experiment [1] (setting [4]) and 6.11 in experiment [1] (A2780, read-out: IC₅₀ of Vindesine, A2780/ADM cells, Vindesine with test compound at 0.05 µM).
As a reminder, the T/C is the ratio of treated to control. On to `COC1C(N(C)C(=O)OCc2ccccc2)CC2OC1(C)n1c3ccccc3c3c4c(c5c6ccccc6n2c5c31)C(=O)N(C)C4` (stereo not drawn) [Compound I-2], for which the pIC50 in experiment [1] (setting [4]) is under 4.00. Also, the T/C is given as 102% in experiment [2] (Compound (I-2) alone 22.2 mg/kg i.p. for 5 consecutive days, survival days vs control) and 152% in experiment [2] (VCR 0.1 mg/kg + Compound (I-2) 22.2 mg/kg i.p. for 5 consecutive days). The “effect of overcoming the drug resistance” value in experiment [2] (P388/VCR-implanted mice, combined with Vincristine, statement in words) is given as “excellent effects to overcome the drug resistance”.
Turning to `COC1C(N(C)CCO)CC2OC1(C)n1c3ccccc3c3c4c(c5c6ccccc6n2c5c31)C(=O)NC4O` (single isomer, unassigned) [Compound I-9], the pIC50 in experiment [1] (setting [4]) was 5.04.
For the molecule `CCOC(=O)N(C)C1CC2OC(C)(C1OC)n1c3ccccc3c3c4c(c5c6ccccc6n2c5c31)C(=O)N(C)C4` (stereo not drawn) [Compound I-10], the pIC50 in experiment [1] (A2780, 72 h, read-out: IC₅₀ of Test Compound Alone) is under 5.00.
Take `CCCOC(=O)C1(O)CC2OC1(C)n1c3ccccc3c3c4c(c5c6ccccc6n2c5c31)C(=O)NC4` (stereo not drawn) [Compound I-12]: the pIC50 in experiment [1] (setting [4]) was 6.38.
`CCCCOC(=O)C1(O)CC2OC1(C)n1c3ccccc3c3c4c(c5c6ccccc6n2c5c31)C(=O)NC4` (stereo not drawn) [Compound I-13]: the pIC50 in experiment [1] (setting [4]) was 5.96.
For the molecule `COC(=O)C1(OC(C)=O)CC2OC1(C)n1c3ccccc3c3c4c(c5c6ccccc6n2c5c31)C(=O)N(C(C)=O)C4` (stereo not drawn) [Compound I-17], the pIC50 in experiment [1] (setting [4]) was under 4.00.
In the case of `CNC1CC2OC(C)(C1OC)n1c3ccccc3c3c4c(c5c6ccccc6n2c5c31)C(=O)N(C)C4` (stereo not drawn) [Compound I-1], the pIC50 in experiment [1] (setting [4]) was 6.59.
On the same count and under the same terms, the value for `CCCCCCOC(=O)C1(O)CC2OC1(C)n1c3ccccc3c3c4c(c5c6ccccc6n2c5c31)C(=O)NC4=O` (stereo not drawn) [Compound I-15] was 5.55; that for `COC1C(N(C)C(=O)CN2CCOCC2)CC2OC1(C)n1c3ccccc3c3c4c(c5c6ccccc6n2c5c31)C(=O)NC4O` (stereo not drawn) [Compound I-4] was 5.15.
Consider `CC[C@]1(O)C[C@@H]2CN(CCc3c([nH]c4ccccc34)[C@@](C(=O)OC)(c3cc4c(cc3OC)N(C)[C@H]3[C@@](O)(C(N)=O)[C@H](O)[C@]5(CC)C=CCN6CC[C@]43[C@@H]65)C2)C1` [Vindesine, reference compound], for which the pIC50 in experiment [1] (A2780, read-out: IC₅₀ of Vindesine, A2780/ADM cells, control group: Vindesine alone, no test compound) is 5.89.
`COC1C(N(C)CCOC(=O)N2CCN(C)CC2)CC2OC1(C)n1c3ccccc3c3c4c(c5c6ccccc6n2c5c31)C(=O)NC4O` (stereo not drawn) [Compound I-7]: in experiment [1] (setting [4]), the pIC50 is 5.02.
As for `CC[C@]1(O)C[C@H]2CN(CCc3c([nH]c4ccccc34)[C@@](C(=O)OC)(c3cc4c(cc3OC)N(C=O)[C@H]3[C@@](O)(C(=O)OC)[C@H](OC(C)=O)[C@]5(CC)C=CCN6CC[C@]43[C@@H]65)C2)C1` [VCR, Vincristine Sulfate, reference compound], the T/C in experiment [2] (VCR alone 0.1 mg/kg i.p. for 5 consecutive days) is given as 112%; in experiment [2] (VCR alone 0.2 mg/kg i.p. for 5 consecutive days), 116%; in experiment [2] (VCR alone 0.4 mg/kg i.p. for 5 consecutive days), 121%.
As to `COC1C(N(C)C(=O)CN2CCN(C)CC2)CC2OC1(C)n1c3ccccc3c3c4c(c5c6ccccc6n2c5c31)C(=O)NC4O` (stereo not drawn) [Compound I-6], in experiment [1] (setting [4]), the pIC50 is 4.90.
Take `COC1C(N(C)C(=O)N2CCN(C)CC2)CC2OC1(C)n1c3ccccc3c3c4c(c5c6ccccc6n2c5c31)C(=O)NC4O` (stereo not drawn) [Compound I-3]: the pIC50 in experiment [1] (setting [4]) was 5.00.
As to `COC1C(N(C)C(=O)CN(C)C)CC2OC1(C)n1c3ccccc3c3c4c(c5c6ccccc6n2c5c31)C(=O)NC4O` (stereo not drawn) [Compound I-5], the pIC50 in experiment [1] (setting [4]) was 5.04.
The molecule `COC1C(N(C)CCO)CC2OC1(C)n1c3ccccc3c3c4c(c5c6ccccc6n2c5c31)C(=O)NC4O` (single isomer, unassigned) [Compound I-8] gave a pIC50 in experiment [3] of 4.76.
